In brackets after ≈: the same amount, converted by molar mass.
Conditions: buffer; pH 7.4; 200.0 µM

| SMILES | solubility kinetic [µg/mL] |
| --- | --- |
| Nc1c(Cl)ncnc1NCC(O)CO (stereo not given) | > 32.8 |
| CN(C)C(=O)c1c(NC(=O)c2ccccc2)sc2c1CCC2 | 42.9 (≈ 136 µM) |
| Nc1nc(Cl)nc2ncn(Cc3ccccc3)c12 | > 39 |
| Fc1ccc(OCCOCCOc2cccc3[nH]ccc23)cc1 | 16.3 (≈ 51.7 µM) |
| CCC(=O)N(CCC(c1ccc(C)cc1)c1ccco1)Cc1ccco1 (stereo not given) | 45.6 (≈ 130 µM) |
| CCn1c(=O)n(CC)c2cc([N+](=O)[O-])c(N3CCNCC3)cc21 | > 47.9 |
| COc1ccc(CCC(=O)OCC(=O)NCc2ccccc2)cc1 | > 49.1 |
| COC(=O)C(C(=O)OC)c1ncc(C(F)(F)F)cc1Cl | 41.1 (≈ 132 µM) |
| CN1C(=S)SC2CS(=O)(=O)CC21C (stereo not given) | > 35.6 |
| NS(=O)(=O)c1ccc(NC(=O)CN2CCc3ccccc32)cc1 | 23.6 (≈ 71.2 µM) |
| CCN(CC(=O)Nc1ccc2c(c1)OCCO2)C(=O)c1ccccc1Br | > 62.9 |
| Cl.O=C(Nc1cccc(Cl)c1)NC1CCN(C2CCCCC2)C1 (stereo not given) | > 53.7 |
| CC(NC(=S)Nc1ccccc1)C(c1cccs1)N1CCOCC1 (stereo not given) | 3.1 (≈ 8.57 µM) |
| O=C(Nc1ccc(S(=O)(=O)N2CCOCC2)cc1)C1CC1 | > 46.6 |
| O=C(NC1CCC(c2ccccc2)CC1)c1cccnc1 (stereo not given) | 4.3 (≈ 15.3 µM) |
| Cc1cccc(C)c1Nc1c(-c2ccccc2O)nc2ncccn12 | 0.4 (≈ 1.21 µM) |
| CCC1CCCCN1C(=O)CSc1nc(C)cc(C)n1 (stereo not given) | > 44 |
| N#Cc1ccc(N2CCCNCC2)nc1 | > 30.3 |
| Cc1nc(/C(N)=N/OC(=O)c2cccc(Cl)c2)c(C(F)(F)F)o1 | > 52.2 |
| O=C(Nc1cccnc1)c1cc(-c2ccc(Cl)cc2)on1 | 0.3 (≈ 1 µM) |
| CCn1c(C)c(C(=O)Nc2ccc(OC)cc2)c2cc(OC)ccc21 | 0.4 (≈ 1.18 µM) |
| O=C(Nc1ccccc1N1CCCCC1)c1cccc([N+](=O)[O-])c1 | 0.7 (≈ 2.15 µM) |
| COc1ccc(NC(=O)CNCc2ccc(Cl)cc2)cc1S(=O)(=O)N1CCOCC1.O=C(O)C(=O)O | > 81.6 |
| CC1C(=O)Nc2ccccc2N1C(=O)c1ccc(F)cc1 (stereo not given) | > 42.6 |

| SMILES | solubility kinetic [µg/mL] |
| --- | --- |
| O=C(NNC(=O)c1ccc([N+](=O)[O-])cc1)c1ccc(NS(=O)(=O)c2cccs2)cc1 | > 67 |
| Cc1nc2c3c(sc2c(=O)[nH]1)NC(=O)CC3c1ccccc1Cl (stereo not given) | 1.5 (≈ 4.34 µM) |
| Cc1ccc(NC(=O)Cn2c(C)csc2=O)cc1 | > 39.3 |
| CCOC(=O)c1ccc(NC(C)=O)c([N+](=O)[O-])c1 | > 37.8 |
| CC12CC3CC(C)(C1)CC(C(=O)NCc1cccnc1)(C3)C2 | > 44.8 |
| Cl.Nc1cnccc1Oc1cccc(C(F)(F)F)c1 | > 43.6 |
| O=C(c1cc(COc2ccc(F)cc2F)on1)N1CCOCC1 | > 48.6 |
| CC(NC(=O)Cc1ccc(Br)cc1)c1ccccc1 (stereo not given) | 9.7 (≈ 30.5 µM) |
| Nc1nc(NCc2ccco2)nc(NC2CCCCC2)c1[N+](=O)[O-] | 0.3 (≈ 0.903 µM) |
| O=C(NCCCNC(=O)c1cccnc1)c1ccc(Cl)cc1 | 43.3 (≈ 136 µM) |
| O=C(CNCc1cccc(Cl)c1)N1CCc2ccccc2C1 | 38.9 (≈ 124 µM) |
| Cc1ccnc(NS(=O)(=O)c2ccc(Cl)nc2)c1 | 26.9 (≈ 94.8 µM) |
| Cc1cccc(C)c1NC(=O)CCn1cnc2ccccc2c1=O | > 48.2 |
| O=C(Nc1nc2ccccc2[nH]1)c1ccc(Cl)cc1 | 1.8 (≈ 6.62 µM) |
| COc1ccc(C2c3ccc(O)cc3Oc3ncn(CC(C)C)c(=N)c32)cc1 (stereo not given) | 53.8 (≈ 143 µM) |
| O=C(c1ncc[nH]1)c1cccs1 | > 26.7 |
| CCOc1ccc(S(=O)(=O)N(C)CC(=O)NC2CC2)cc1 | > 46.9 |
| Cc1onc(-c2c(F)cccc2Cl)c1C(=O)N1CCCCC1 | > 48.4 |
| O=C(Nc1ccccc1Cl)Nc1cccc2cccnc12 | < 0.2 |
| Cl.O=C(NC12CC3CC(CC(C3)C1)C2)OCCNC1CCCCC1 | > 53.5 |
| CCOC(=O)c1nc2ccccc2c(C)c1C.Cl | 25.3 |
| CC(C)c1ccc2oc(=O)cc(CN3CCOCC3)c2c1 | 41.9 (≈ 146 µM) |
| O=C(CCc1ccccc1)N1CCN(c2ccc(F)cc2)CC1 | > 46.9 |
| O=c1c2c([nH]c3ccccc13)CCCCC2 | > 32 |

| SMILES | solubility kinetic [µg/mL] |
| --- | --- |
| CC(C)(C)Nc1nc2cc([N+](=O)[O-])ccc2o1 | 10.9 (≈ 46.3 µM) |
| C[C@H](NC(=O)N1CCC(Cc2ccccc2)CC1)C(=O)O | > 43.6 |
| Cn1c(O)c(C=Nc2ccc(Br)cc2)sc1=O | < 0.3 |
| COc1ccccc1C(=O)COC(=O)COc1ccc(C#N)cc1 | > 48.8 |
| O=C(NS(=O)(=O)c1ccccc1)c1cccc(Br)c1 | > 51 |
| COc1ccc(NS(=O)(=O)c2cn(C)cn2)cc1Cl | 17 (≈ 56.3 µM) |
| O=c1oc2ccccc2c(CNc2ccccc2)c1[N+](=O)[O-] | 3.1 (≈ 10.5 µM) |
| N#CC1CCCc2c1[nH]c1ccc([N+](=O)[O-])cc21 (stereo not given) | 20.8 (≈ 86.2 µM) |
| Cc1[nH]c(=O)[nH]c(=O)c1/C=C/C(=O)O | > 29.4 |
| CCOc1ccccc1C(=O)Nc1ccc(NC(=O)c2ccccc2)cc1 | 1.7 (≈ 4.72 µM) |
| O=S(=O)(NC1CCCCCCC1)c1ccccc1 | 30 (≈ 112 µM) |
| CC(O)CNCCCCOc1ccc(OCc2ccccc2)cc1 (stereo not given) | 40.7 (≈ 124 µM) |
| OCCC1CN(Cc2cccc(O)c2)CCN1CCc1ccccc1 (stereo not given) | 50.8 (≈ 149 µM) |
| CCOC(=O)c1c(C)[nH]c(C(=O)COC(=O)C2CC2)c1C | 7.8 (≈ 26.6 µM) |
| COc1ccc(C(=O)NC2CCCc3ccccc32)cc1 (stereo not given) | 6.5 (≈ 23.1 µM) |
| Cc1nc(-c2cccc(NC(=O)c3ccc(Br)o3)c2)cs1 | 17.2 (≈ 47.4 µM) |
| Cc1cc(N2CCOCC2)nc2ccc(Cl)cc12 | 1.7 (≈ 6.47 µM) |
| Nc1cc(N2CCCCCC2)c2nonc2c1[N+](=O)[O-] | 0.9 (≈ 3.25 µM) |
| CCOCCCn1c(SCC(=O)N2CCOCC2)nc2ccccc2c1=O | > 58.7 |
| COc1cc(OC)cc(C(=O)NC(C)CCc2ccccc2)c1 (stereo not given) | 34.2 (≈ 109 µM) |
| O=C(NCC1CCCO1)c1cccc(NC(=O)c2ccccc2)c1 (stereo not given) | > 48.7 |
| CCCS(=O)(=O)N1CCN=C1SCc1ccc(F)cc1 | > 47.5 |
| Cc1cccc(NC(=O)c2ccc(NCCO)c([N+](=O)[O-])c2)n1 | 3.4 (≈ 10.7 µM) |
| O=C(CCc1ccc(S(=O)(=O)N2CCOCC2)cc1)OCC(=O)c1ccccc1F | 49.6 (≈ 114 µM) |

| SMILES | solubility kinetic [µg/mL] |
| --- | --- |
| Cl.NC(=NCc1ccccc1)c1cccc([N+](=O)[O-])c1 | > 43.8 |
| O=C(c1ccc(COc2ccccc2Cl)o1)N1CCOCC1 | 34.4 (≈ 107 µM) |
| Cc1nnc(SCC(=O)NC2CCCCC2)n1N | > 40.4 |
| Cc1cccc(COc2ccc(/C=C3/C(=O)N(C)C(=S)N3C)cc2)c1 | 5.4 (≈ 15.3 µM) |
| CN1CCOC(c2ccccc2)c2ccccc2C1.Cl (stereo not given) | > 43.5 |
| O=C(CN1C(=O)c2ccccc2C1=O)Nc1cccc(Cl)c1 | 21.2 (≈ 67.4 µM) |
| O=C(CCCNC(=O)c1ccc(Cl)cc1)Nc1nccs1 | 10.3 (≈ 31.8 µM) |
| O=C(NCc1ccccc1)C12CC3CC(CC(Br)(C3)C1)C2 | 6.6 (≈ 19 µM) |
| CSc1ccccc1NC(=O)c1csc(C)c1 | 30 (≈ 114 µM) |
| Cc1ccc(S(=O)(=O)N2CCC[C@H]2C(=O)Nc2ccccc2C)cc1 | > 53.8 |
| O=C(CN1C(=O)NC2(CCCC2)C1=O)NCc1cccc(Cl)c1 | 42.4 (≈ 126 µM) |
| CC(=O)Nc1sc(C)c(C)c1C(=O)OCCOc1ccccc1 | 1.6 (≈ 4.8 µM) |
| CCN1CCN(C(=O)CSc2nc(N)cc(N)n2)CC1 | > 44.5 |
| C/C(=N\O)c1cccc(Br)c1 | 18.1 (≈ 84.6 µM) |
| O=C(CCN1C(=O)C2C3CCC(C3)C2C1=O)Nc1ccc(F)cc1 (stereo not given) | 36.8 (≈ 111 µM) |
| Cc1ccc(NC(=S)N2CCN(c3ccccn3)CC2)cc1C | 1.1 (≈ 3.37 µM) |
| O=C(O)c1cc(NC(=O)c2ccco2)cc(NC(=O)c2ccco2)c1 | 44.4 (≈ 130 µM) |
| Cc1ccccc1C1CCCN(Cc2nc(CC3CC3)no2)C1 (stereo not given) | 24.1 (≈ 77.4 µM) |
| COc1cccc(Nc2nc(C)cc(C)c2C(N)=O)c1 | > 40.7 |
| CN1C(CC(=O)Nc2ccc(Cl)cc2Cl)c2ccccc2CC1(C)C (stereo not given) | 10 (≈ 26.5 µM) |
| Cc1ccc2c(c1)c1c3n2CCN(CC#N)C3CCC1 (stereo not given) | 1.1 (≈ 4.15 µM) |
| O=C(CN1C(=O)NC(CCc2ccccc2)C1=O)N1CCCCCC1 (stereo not given) | > 51.5 |
| COc1cc(OC)c(C(=O)N2CCCC2)cc1OC | > 39.8 |
| O=C(c1ccccc1CCc1ccccc1)N1CCCC1 | 40.5 (≈ 145 µM) |

| SMILES | solubility kinetic [µg/mL] |
| --- | --- |
| CC1=CC2=NC(=O)/C(=C/c3cccs3)C(=N)N2O1 | 2.8 (≈ 10.8 µM) |
| CN(CC1COc2ccccc2O1)C(=O)Cn1cc(C(F)(F)F)ccc1=O (stereo not given) | > 57.4 |
| C=CCc1cc(C)ccc1OCCCn1ccnc1.O=C(O)C(=O)O | 29.1 |
| N#Cc1c(F)cccc1N1CCC(C#N)CC1 | > 34.4 |
| CC(CN1CCOCC1)OC(=O)c1ccccc1.Cl (stereo not given) | > 42.9 |
| CC(C)C(NC(=O)c1ccccc1F)C(=O)NCCCn1ccnc1 (stereo not given) | > 52 |
| CC(O)c1nc2ccccc2n1CCCc1ccccc1 (stereo not given) | > 42.1 |
| CSc1ncccc1C(=O)OCC(=O)Nc1ccc(C)c(S(=O)(=O)N2CCOCC2)c1 | 21 (≈ 45.1 µM) |
| CC(C)(C)NC(=O)COC(=O)CCC(=O)c1ccc(F)cc1 | > 46.4 |
| COc1cccc(-c2cc(C(=O)N3CCOCC3)no2)c1 | > 43.2 |
| S=C(NCC1CCCO1)N1CCN(Cc2ccccc2Cl)CC1 (stereo not given) | > 53.1 |
| O=C(O)c1cc([N+](=O)[O-])ccc1NCCCc1ccccc1 | > 45 |
| Cc1onc(-c2c(Cl)cccc2Cl)c1C(=O)O/N=C(\C#N)c1c(Cl)cccc1Cl | 62.9 (≈ 134 µM) |
| COc1ccc(C(O)Cc2nccn2C)cc1 (stereo not given) | > 34.8 |
| Cc1nccn1CC(O)COc1ccc([N+](=O)[O-])cc1 (stereo not given) | > 41.6 |
| O=C1C2CCCN2C(=O)N1CCCN1CCN(c2ccc([N+](=O)[O-])cc2)CC1 (stereo not given) | 49.4 (≈ 128 µM) |
| N#C/C(=C\c1cccc(O)c1)C(=O)N1CCCCC1 | > 38.4 |
| C=CCSc1nc2ccccc2n2cnnc12 | > 36.3 |
| CCc1ncc(C)nc1CC | 6.7 (≈ 44.6 µM) |
| COc1ccc(C(=O)C2CCN(CC(=O)Nc3ccccc3F)CC2)cc1 | 4.5 (≈ 12.1 µM) |
| Cc1ccc(OCCNC(=O)CCc2ccccc2)cc1C | 12.9 (≈ 43.4 µM) |
| CN1C(C(=O)Nc2ncccn2)=C(O)c2ccccc2S1(=O)=O | > 49.8 |
| COc1cc(OC)c(C(=O)OCC(=O)NC23CC4CC(CC(C4)C2)C3)cc1OC | 3.9 (≈ 9.67 µM) |
| Cc1ccc(S(=O)(=O)N(C)CC(=O)N2CCCCCC2)cc1 | 48.4 (≈ 149 µM) |
